Data reported in PubChem BioAssay AID179 (DTP/NCI, 2004).
The source made the active and inactive calls.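 Rule for the calls: active = compounds giving half or more protection of infected cells from virus-caused growth loss, again on retest; inactive = the rest.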

Tested on: CEM cells HIV-1 protection, formazan growth assay
Test: NCI AIDS Antiviral Assay
Settings: for IC50: measured here: growth of uninfected CEM cells
In short: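 Soluble formazan readout of cell growth; CEM cells ± HIV-1; 5 drug concs. ≥50% protection → retest; ≥50% again = moderately active; reproducible 100% = confirmed active.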

Compound	EC50 [µM]	IC50 [µM]	outcome
C/C(=N\N=C(N)N)C(CN1CCOCC1)C(c1ccccc1)c1c(O)c2ccccc2oc1=O (stereo unspecified)	> 52.5	> 52.5	
FC(F)(F)C(C1=NC(C(F)(F)F)(C(F)(F)F)N=C(N2CCOCC2)O1)C(F)(F)F	> 2	> 2	
COc1ccccc1C(=O)c1c(N2CCCCC2)c(=O)c1=O	182	> 200	
COc1cc2ccc3c(c2cc1OC)CCc1cn[nH]c1-3	> 9.77	> 9.77	
NC(=O)CCC(F)(C(N)=O)C(N)=O	> 200	> 200	
C/C=C/[C@@]1(OC(=O)c2ccccc2)C[C@@H]2CCCC[C@@H]21			inactive
CS/C(=N\N=C(/C)c1ccccn1)N1CCN(c2ccccn2)CC1	> 123	17.4	
CCOc1ccc(NC(=O)C(=O)C(C(=O)c2ccc3ccccc3c2)C2OC(=O)c3ccccc32)cc1 (stereo unspecified)	> 52.5	45.7	
O=c1cc(-c2ccccc2)oc2c1ccc1[nH]c3ccccc3c(=O)c12	> 200	> 200	
Cc1ccccc1NCN1C(=O)S/C(=C2\C(=O)N(C)c3ccc(Br)cc32)C1=O	> 200	11.7	
NNC(=O)c1n[nH]nc1SSc1n[nH]nc1C(=O)NN			inactive
CCOc1cc(C=Nc2ccc(Oc3ccc(Cl)cc3)c(Cl)c2)ccc1O	> 200	29.5	
CCCCC[C@H](O)[C@H](C)C=C1SCCCS1	> 200	97.7	
CCOC(=O)C(NCc1ccc2c(c1)OCO2)(NC(=O)c1ccccc1)C(F)(F)F (stereo unspecified)	> 200	30.2	
COc1cc(N)c2[nH]c3c(C)ccc(C)c3c2c1	> 30.2	> 30.2	
COc1cc2ccnc(-c3n[nH]c4cc(OC)c(OC)cc34)c2cc1OC			inactive
O=C(CC1(CC(=O)NCc2ccccc2)OCCO1)NCc1ccccc1			inactive

Compound	EC50 [µM]	IC50 [µM]	outcome
COc1cc(N(CCC#N)CCC#N)ccc1/C=C1\SC(=S)NC1=O	> 200	> 200	
O=C(O)CC(NC(=O)C(F)(F)F)C(=O)NC1Cc2ccccc2OC1=O (stereo unspecified)	> 200	> 200	
O=C1OCC2OC(O)C(O)C(O)C2OC(=O)c2cc(O)c(O)c(O)c2-c2c(O)c(O)c3oc(=O)c4c(c(O)c(O)c5oc(=O)c2c3c54)-c2c1cc(O)c(O)c2O (stereo unspecified)	4.17	14.8	
COc1ccc2c(c1OC)CC1COCC21 (stereo unspecified)	> 200	> 200	
S=c1[nH]nc(Nc2ccc(Cl)cc2)s1	> 200	79.4	
CSc1nc2nc(C(O)C(O)C(O)CO)cnc2c(=O)[nH]1 (stereo unspecified)			inactive
ON=C(CC(O)(C(F)(F)Cl)C(F)(F)Cl)CC(O)(C(F)(F)Cl)C(F)(F)Cl	> 200	8.71	
O=C1[C@@H]2C(c3ccccc3)=NO[C@@H]2C(=O)N1c1ccc(Cc2ccc(N3C(=O)[C@H]4C(c5ccccc5)=NO[C@H]4C3=O)cc2)cc1	> 31.6	> 31.6	
COC(=O)C12C=CC(C(=O)OC)(CC1)n1c(=O)n(-c3ccccc3)c(=O)n12	> 200	> 200	
CN(C)c1ccc(/C=C(\C#N)c2ccc(Br)cc2)cc1	> 100	1.35	
O=C(O)c1cc(Cc2ccc(O)c(C(=O)O)c2)ccc1O	562	871	active
Cc1cc(C)c(SSc2nnnn2C)c(C)c1	> 200	19.5	
CCCCCC=C(c1ccc(OC)c(S(=O)(=O)N(C)C)c1)c1ccc(OC)c(S(=O)(=O)N(C)C)c1	> 35.5	> 35.5	
CCN(CC)C1=Nc2ccccc2N(c2ccccc2)C(=S)C1	> 200	85.1	
[N-]=[N+]=Nc1cc(=O)n2c3c(cccc13)CCC2			inactive
CCCC(=O)NC(Nc1ccc(S(=O)(=O)Nc2ccc(OC)nn2)cc1)(C(F)(F)F)C(F)(F)F	> 200	> 200	
